Tests used:
Conditions in all cases: compound at 10 μM
Human δ-opioid (DOP) = target: T1, Human δ-opioid (DOP) (Homo sapiens, UniProt P41143); assay: Radioligand binding, human δ-opioid (DOP) membranes, FlashPlate, [3H]-Bremazocine
T1 construct: purchased Perkin Elmer Biosignal
Procedure, shortened: (§1)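 Cloned human receptor membranes were coated onto FlashPlate wells and incubated with radioligand and compound (added from a 0.5 mM DMSO daughter plate) for 1 hour at room temperature in the dark. Scintillation counting gave percent inhibition, with DMSO defining total and reference ligand defining non-specific binding.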

Human κ-Opioid (KOP) = target: T2, Human κ-Opioid (KOP) (Homo sapiens, UniProt P41145); assay: Radioligand binding, human κ-opioid (KOP) membranes, filtration, [3H]-Diprenorphine
T2 construct: purchased Perkin Elmer Biosignal
T2 sequence (P41145 whole entry): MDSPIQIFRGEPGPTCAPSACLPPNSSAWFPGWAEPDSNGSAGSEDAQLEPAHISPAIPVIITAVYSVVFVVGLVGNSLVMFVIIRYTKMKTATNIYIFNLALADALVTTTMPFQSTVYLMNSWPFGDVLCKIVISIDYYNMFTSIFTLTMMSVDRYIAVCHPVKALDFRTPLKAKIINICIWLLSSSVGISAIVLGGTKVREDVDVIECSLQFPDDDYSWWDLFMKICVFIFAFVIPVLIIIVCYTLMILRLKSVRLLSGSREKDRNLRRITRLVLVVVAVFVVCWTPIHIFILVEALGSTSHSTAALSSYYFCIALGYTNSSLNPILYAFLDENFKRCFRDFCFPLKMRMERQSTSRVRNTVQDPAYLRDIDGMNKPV
Procedure, shortened: (§2)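 Filtration binding on cloned human receptor membranes (1 Unit/well), [125I]-Substance P for NK1 and [3H]-Diprenorphine for KOP, 1 h at room temperature. Filters PEI-presoaked, washed with cold 50 mM Tris-HCl pH 7.4, counted by scintillation; percent inhibition calculated, reference ligand defining non-specific binding.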

Human Melanocortin (MC3) = target: T3, Human Melanocortin (MC3) (Homo sapiens, UniProt P41968); assay: Radioligand binding, human melanocortin MC3 membranes, FlashPlate, [125I]-NDP-αMSH
T3 construct: purchased Perkin Elmer Biosignal
T3 sequence (P41968 whole entry): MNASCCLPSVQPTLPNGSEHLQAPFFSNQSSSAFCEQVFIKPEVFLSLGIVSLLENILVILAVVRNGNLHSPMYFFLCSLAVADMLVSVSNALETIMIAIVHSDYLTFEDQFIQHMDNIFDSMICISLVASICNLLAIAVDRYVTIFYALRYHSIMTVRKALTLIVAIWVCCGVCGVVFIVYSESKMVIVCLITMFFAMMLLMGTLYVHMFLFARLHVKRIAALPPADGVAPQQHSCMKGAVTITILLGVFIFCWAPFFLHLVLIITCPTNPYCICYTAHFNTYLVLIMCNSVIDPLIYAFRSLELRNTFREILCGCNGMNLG
Procedure, shortened: as §1

Human Melanocortin (MC4) = target: T4, Human Melanocortin (MC4) (Homo sapiens, UniProt P32245); assay: Radioligand binding, human melanocortin MC4 membranes, FlashPlate, [125I]-NDP-αMSH
T4 construct: purchased Perkin Elmer Biosignal
T4 sequence (P32245 whole entry): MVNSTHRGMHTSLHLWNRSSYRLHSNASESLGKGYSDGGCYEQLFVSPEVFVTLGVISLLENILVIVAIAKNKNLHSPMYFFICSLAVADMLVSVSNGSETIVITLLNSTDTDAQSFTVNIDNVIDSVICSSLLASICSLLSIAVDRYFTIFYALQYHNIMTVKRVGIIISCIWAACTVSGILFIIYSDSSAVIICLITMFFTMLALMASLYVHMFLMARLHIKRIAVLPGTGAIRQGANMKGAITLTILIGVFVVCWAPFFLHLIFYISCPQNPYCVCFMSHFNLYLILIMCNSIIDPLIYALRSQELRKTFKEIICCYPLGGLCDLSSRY
Procedure, shortened: as §1

Human melanocortin (MC5) = target: T5, Human melanocortin (MC5) (Homo sapiens, UniProt P33032); assay: Radioligand binding, human melanocortin MC5 membranes, FlashPlate, [125I]-NDP-αMSH
T5 construct: purchased Perkin Elmer Biosignal
T5 sequence (P33032 whole entry): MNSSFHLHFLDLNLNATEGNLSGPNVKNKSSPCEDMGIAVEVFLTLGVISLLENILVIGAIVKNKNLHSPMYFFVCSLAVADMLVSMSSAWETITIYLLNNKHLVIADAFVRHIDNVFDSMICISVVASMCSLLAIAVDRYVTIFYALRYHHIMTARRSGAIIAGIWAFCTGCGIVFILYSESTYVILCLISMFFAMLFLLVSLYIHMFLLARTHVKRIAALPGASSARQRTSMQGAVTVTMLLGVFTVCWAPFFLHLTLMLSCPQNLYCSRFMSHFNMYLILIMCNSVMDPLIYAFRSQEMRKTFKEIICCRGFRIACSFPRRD
Procedure, shortened: as §1

[1] = target: T6, Human melanin-concentrating hormone (MCH1) (Homo sapiens, UniProt Q99705); assay: Radioligand binding, human melanin-concentrating hormone MCH1 membranes, FlashPlate, [125I]-S36057
T6 construct: purchased Perkin Elmer Biosignal
T6 sequence (Q99705 whole entry): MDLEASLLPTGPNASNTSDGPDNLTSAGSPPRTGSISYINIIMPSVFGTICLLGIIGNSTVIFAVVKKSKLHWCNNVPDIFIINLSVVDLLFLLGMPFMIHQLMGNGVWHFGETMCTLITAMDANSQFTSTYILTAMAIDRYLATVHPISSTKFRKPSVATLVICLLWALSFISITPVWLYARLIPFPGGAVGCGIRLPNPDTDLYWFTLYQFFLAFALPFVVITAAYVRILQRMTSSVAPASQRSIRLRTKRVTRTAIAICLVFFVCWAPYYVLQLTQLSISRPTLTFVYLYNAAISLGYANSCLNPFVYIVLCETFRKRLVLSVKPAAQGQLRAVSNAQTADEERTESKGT
Procedure, shortened: as §1

Human μ-opioid (MOP) = target: T7, Human μ-opioid (MOP) (Homo sapiens, UniProt P35372); assay: Radioligand binding, human μ-opioid (MOP) membranes, FlashPlate, [3H]-Naloxone
T7 construct: purchased Perkin Elmer Biosignal
T7 sequence (P35372 whole entry): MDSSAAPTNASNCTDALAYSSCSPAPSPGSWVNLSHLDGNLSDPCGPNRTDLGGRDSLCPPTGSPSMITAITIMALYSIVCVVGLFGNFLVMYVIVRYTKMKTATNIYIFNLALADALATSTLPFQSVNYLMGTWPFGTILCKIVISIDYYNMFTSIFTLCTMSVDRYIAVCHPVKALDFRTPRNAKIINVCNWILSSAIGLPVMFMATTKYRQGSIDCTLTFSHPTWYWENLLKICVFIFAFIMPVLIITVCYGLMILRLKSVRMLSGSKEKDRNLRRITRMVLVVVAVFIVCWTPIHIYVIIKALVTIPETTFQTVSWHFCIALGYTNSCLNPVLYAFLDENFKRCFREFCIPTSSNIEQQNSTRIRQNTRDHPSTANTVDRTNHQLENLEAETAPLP
Procedure, shortened: as §1

Human neurokinin (NK1) = target: T8, Human neurokinin (NK1) (Homo sapiens, UniProt P25103); assay: Radioligand binding, human neurokinin NK1 membranes, filtration, [125I]-Substance P
T8 construct: purchased Perkin Elmer Biosignal
T8 sequence (P25103 whole entry): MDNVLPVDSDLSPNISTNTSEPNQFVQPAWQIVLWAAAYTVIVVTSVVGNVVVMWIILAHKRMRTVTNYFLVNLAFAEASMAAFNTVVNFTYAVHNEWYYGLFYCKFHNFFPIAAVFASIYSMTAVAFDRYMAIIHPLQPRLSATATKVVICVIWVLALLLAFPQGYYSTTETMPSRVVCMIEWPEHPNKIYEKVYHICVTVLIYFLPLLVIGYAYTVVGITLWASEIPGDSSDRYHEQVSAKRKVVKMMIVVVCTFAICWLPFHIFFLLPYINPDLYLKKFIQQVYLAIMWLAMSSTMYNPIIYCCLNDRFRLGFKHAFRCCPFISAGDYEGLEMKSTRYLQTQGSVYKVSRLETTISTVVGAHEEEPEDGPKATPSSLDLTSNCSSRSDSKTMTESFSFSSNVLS
Procedure, shortened: as §2

[2] = target: T9, Human neuropeptide Y (NPY-Y1) (Homo sapiens, UniProt P25929); assay: Radioligand binding, human neuropeptide Y NPY-Y1 membranes, FlashPlate, [125I]-PYY
T9 construct: purchased Perkin Elmer Biosignal
T9 sequence (P25929 1-384): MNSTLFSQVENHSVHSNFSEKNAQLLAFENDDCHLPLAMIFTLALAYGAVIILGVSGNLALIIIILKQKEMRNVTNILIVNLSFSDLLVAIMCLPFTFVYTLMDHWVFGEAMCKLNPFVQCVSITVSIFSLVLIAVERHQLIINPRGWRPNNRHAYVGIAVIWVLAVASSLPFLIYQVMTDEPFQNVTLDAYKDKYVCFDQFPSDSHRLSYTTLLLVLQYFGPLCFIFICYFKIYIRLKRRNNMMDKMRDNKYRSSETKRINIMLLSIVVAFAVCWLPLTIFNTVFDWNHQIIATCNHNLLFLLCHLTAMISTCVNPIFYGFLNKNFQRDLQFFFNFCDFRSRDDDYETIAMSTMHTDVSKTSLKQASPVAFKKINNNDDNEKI
Procedure, shortened: as §1

Human opioid (ORL1) = target: T10, Human opioid (ORL1) (Homo sapiens, UniProt P41146); assay: Radioligand binding, human opioid ORL1 membranes, FlashPlate, [125I]-Nociceptin
T10 construct: purchased Perkin Elmer Biosignal
T10 sequence (P41146 whole entry): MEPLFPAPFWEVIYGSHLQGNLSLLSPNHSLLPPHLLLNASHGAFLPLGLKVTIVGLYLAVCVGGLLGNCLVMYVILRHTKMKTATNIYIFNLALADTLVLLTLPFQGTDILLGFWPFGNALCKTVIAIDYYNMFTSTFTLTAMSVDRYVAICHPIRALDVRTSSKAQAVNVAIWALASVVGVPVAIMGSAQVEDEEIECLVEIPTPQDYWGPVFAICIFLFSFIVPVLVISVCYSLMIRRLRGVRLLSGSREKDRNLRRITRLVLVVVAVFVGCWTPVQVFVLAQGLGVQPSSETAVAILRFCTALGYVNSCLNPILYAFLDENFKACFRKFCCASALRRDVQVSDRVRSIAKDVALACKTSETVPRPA
Procedure, shortened: as §1

Mouse urotensin (mUR2) = target: T11, Mouse urotensin (mUR2) (Mus musculus, UniProt Q8VIH9); assay: Radioligand binding, mouse urotensin mUR2 membranes, FlashPlate, [125I]-Urotensin II
T11 construct: purchased Perkin Elmer Biosignal
T11 sequence (Q8VIH9 1-385): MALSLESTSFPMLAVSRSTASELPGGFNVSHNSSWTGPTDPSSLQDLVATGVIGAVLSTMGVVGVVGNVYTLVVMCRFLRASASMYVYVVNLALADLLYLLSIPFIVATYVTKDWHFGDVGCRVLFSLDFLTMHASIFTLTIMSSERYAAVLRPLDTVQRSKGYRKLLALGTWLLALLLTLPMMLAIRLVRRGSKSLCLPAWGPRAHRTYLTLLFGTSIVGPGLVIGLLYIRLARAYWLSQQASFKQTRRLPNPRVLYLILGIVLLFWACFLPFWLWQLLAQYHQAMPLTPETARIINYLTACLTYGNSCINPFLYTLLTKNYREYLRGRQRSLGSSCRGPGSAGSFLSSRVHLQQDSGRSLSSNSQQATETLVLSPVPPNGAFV
Procedure, shortened: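 Cloned mouse urotensin (mUR2) receptor membranes from Perkin Elmer Biosignal were immobilized in FlashPlate microplates using a proprietary coating. Each well got 19.5 μl buffer, then 0.5 μl of DMSO, reference ligand, or compound. Adding 5 μl of [125I]-Urotensin II, diluted to 5× final concentration in binding buffer, started binding. Plates were sealed with TopSeal-A and incubated 1 hour at room temperature in the dark. Wells were counted for 30 seconds each on a TopCount after a 60-second delay, and percentage inhibition was calculated.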

T1 sequence (P41143 whole entry): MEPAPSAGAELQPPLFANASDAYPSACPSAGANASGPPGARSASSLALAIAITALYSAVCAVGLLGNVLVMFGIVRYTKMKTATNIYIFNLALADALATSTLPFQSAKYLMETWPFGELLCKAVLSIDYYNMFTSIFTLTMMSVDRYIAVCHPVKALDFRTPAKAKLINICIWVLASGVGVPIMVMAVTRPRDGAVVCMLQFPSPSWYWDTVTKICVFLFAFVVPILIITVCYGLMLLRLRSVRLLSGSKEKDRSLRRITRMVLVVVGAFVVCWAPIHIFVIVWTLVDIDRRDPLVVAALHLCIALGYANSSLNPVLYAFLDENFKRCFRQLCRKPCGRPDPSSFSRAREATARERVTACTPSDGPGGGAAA

SMILES: NCCCC(=O)NC1C(OCc2ccc(Cl)cc2)OC(COCc2ccc3ccccc3c2)C(O)C1OCc1ccc(Cl)cc1 (single isomer, unassigned) [compound 490]
- A1: inhibition of radioligand binding, human δ-opioid (DOP) (Human δ-opioid (DOP); [3H]-Bremazocine): − (“−” indicates less than 50% inhibition at 10 μM)
- A2: inhibition of radioligand binding, human κ-opioid (KOP) (Human κ-Opioid (KOP); [3H]-Diprenorphine): − (“−” indicates less than 50% inhibition at 10 μM)
- A3: inhibition of radioligand binding, human melanocortin (MC3) (Human Melanocortin (MC3); [125I]-NDP-αMSH): + (“+” indicates greater than 50% inhibition at 10 μM)
- A4: inhibition of radioligand binding, human melanocortin (MC4) (Human Melanocortin (MC4); [125I]-NDP-αMSH): + (“+” indicates greater than 50% inhibition at 10 μM)
- A5: inhibition of radioligand binding, human melanocortin (MC5) (Human melanocortin (MC5); [125I]-NDP-αMSH): + (“+” indicates greater than 50% inhibition at 10 μM)
- A6: inhibition of radioligand binding, human melanin-concentrating hormone (MCH1) ([1]; [125I]-S36057, 10 µM): + (“+” indicates greater than 50% inhibition at 10 μM)
- A7: inhibition of radioligand binding, human μ-opioid (MOP) (Human μ-opioid (MOP); [3H]-Naloxone): + (“+” indicates greater than 50% inhibition at 10 μM)
- A8: inhibition of radioligand binding, human neurokinin (NK1) (Human neurokinin (NK1); [125I]-Substance P): + (“+” indicates greater than 50% inhibition at 10 μM)
- A9: inhibition of radioligand binding, human neuropeptide Y (NPY-Y1) ([2]; [125I]-PYY): − (“−” indicates less than 50% inhibition at 10 μM)
- A10: inhibition of radioligand binding, human opioid (ORL1) (Human opioid (ORL1); [125I]-Nociceptin): + (“+” indicates greater than 50% inhibition at 10 μM)
- A11: inhibition of radioligand binding, mouse urotensin (mUR2) (Mouse urotensin (mUR2); [125I]-Urotensin II): − (“−” indicates less than 50% inhibition at 10 μM)

SMILES: COC[C@H]1OC(OCc2ccc(Cl)cc2)[C@H](NC(=O)CNC(=N)N)[C@@H](OCc2cccc(O)c2)[C@@H]1O (stereo partly drawn) [compound 137]
- A1 radioligand binding, percentage inhibition (Human δ-opioid (DOP); [3H]-Bremazocine): − (“−” indicates less than 50% inhibition at 10 μM)
- A2 radioligand binding, percentage inhibition (Human κ-Opioid (KOP); [3H]-Diprenorphine): − (“−” indicates less than 50% inhibition at 10 μM)
- A3 radioligand binding, percentage inhibition (Human Melanocortin (MC3); [125I]-NDP-αMSH): − (“−” indicates less than 50% inhibition at 10 μM)
- A4 radioligand binding, percentage inhibition (Human Melanocortin (MC4); [125I]-NDP-αMSH): − (“−” indicates less than 50% inhibition at 10 μM)
- A5 radioligand binding, percentage inhibition (Human melanocortin (MC5); [125I]-NDP-αMSH): + (“+” indicates greater than 50% inhibition at 10 μM)
- A6 radioligand binding, percentage inhibition ([1]; [125I]-S36057): − (“−” indicates less than 50% inhibition at 10 μM)
- A7 radioligand binding, percentage inhibition (Human μ-opioid (MOP); [3H]-Naloxone): + (“+” indicates greater than 50% inhibition at 10 μM)
- A8 radioligand binding, percentage inhibition (Human neurokinin (NK1); [125I]-Substance P): − (“−” indicates less than 50% inhibition at 10 μM)
- A9 radioligand binding, percentage inhibition ([2]; [125I]-PYY): − (“−” indicates less than 50% inhibition at 10 μM)
- A10 radioligand binding, percentage inhibition (Human opioid (ORL1); [125I]-Nociceptin): − (“−” indicates less than 50% inhibition at 10 μM)
- A11 radioligand binding, percentage inhibition (Mouse urotensin (mUR2); [125I]-Urotensin II): − (“−” indicates less than 50% inhibition at 10 μM)

SMILES: COC[C@H]1OC(OCc2ccc(Cl)cc2)[C@H](NC(=O)CCNC(=N)N)[C@@H](OCc2ccc(-c3ccccc3)cc2)[C@@H]1O (stereo partly drawn) [compound 29]
- A1 radioligand binding inhibition (Human δ-opioid (DOP); human δ-opioid (DOP) membranes): − (“−” indicates less than 50% inhibition at 10 μM)
- A2 radioligand binding inhibition (Human κ-Opioid (KOP); human κ-opioid (KOP) membranes): − (“−” indicates less than 50% inhibition at 10 μM)
- A3 radioligand binding inhibition (Human Melanocortin (MC3); human melanocortin MC3 membranes): + (“+” indicates greater than 50% inhibition at 10 μM)
- A4 radioligand binding inhibition (Human Melanocortin (MC4); human melanocortin MC4 membranes): + (“+” indicates greater than 50% inhibition at 10 μM)
- A5 radioligand binding inhibition (Human melanocortin (MC5); human melanocortin MC5 membranes): + (“+” indicates greater than 50% inhibition at 10 μM)
- A6 radioligand binding inhibition ([1]; human MCH1 membranes): + (“+” indicates greater than 50% inhibition at 10 μM)
- A7 radioligand binding inhibition (Human μ-opioid (MOP); human μ-opioid (MOP) membranes): − (“−” indicates less than 50% inhibition at 10 μM)
- A8 radioligand binding inhibition (Human neurokinin (NK1); human neurokinin NK1 membranes): + (“+” indicates greater than 50% inhibition at 10 μM)
- A9 radioligand binding inhibition ([2]; human NPY-Y1 membranes): − (“−” indicates less than 50% inhibition at 10 μM)
- A10 radioligand binding inhibition (Human opioid (ORL1); human ORL1 membranes): − (“−” indicates less than 50% inhibition at 10 μM)
- A11 radioligand binding inhibition (Mouse urotensin (mUR2); mouse urotensin mUR2 membranes): − (“−” indicates less than 50% inhibition at 10 μM)

— patent US20080009418A1, “Selective Inhibitors” (Alchemia LTD., priority 2004, published 2008)
